Results published in the supplement of paper PMC10307832.

What was measured:
Assay in all cases: relative viability (nuclei count vs DMSO), 5 days (fraction); higher = more cells survive
Pemetrexed + Alpelisib = compound: Nc1nc2[nH]cc(CCc3ccc(C(=O)N[C@@H](CCC(=O)O)C(=O)O)cc3)c2c(=O)[nH]1 [Pemetrexed] + Cc1nc(NC(=O)N2CCC[C@H]2C(N)=O)sc1-c1ccnc(C(C)(C)C(F)(F)F)c1 [Alpelisib] (partner 2 µM)
Procedure, shortened: (§1)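 Lung cancer cell lines were pin-tool dosed in 1536-well plates on the day after seeding, with either a lone drug or a fixed anchor-drug dose plus five library-drug doses (not always all listed) in √10 steps. Nuclei were counted on 4× images after 5 days. Relative viability is the ratio of treated-well to vehicle-well nuclei counts, with each value a median of duplicate plates.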

Pemetrexed + Phenformin = compound: Nc1nc2[nH]cc(CCc3ccc(C(=O)N[C@@H](CCC(=O)O)C(=O)O)cc3)c2c(=O)[nH]1 [Pemetrexed] + N=C(N)NC(=N)NCCc1ccccc1 [Phenformin] (partner 250 µM)
Procedure, shortened: as §1

Idelalisib + Phenformin = compound: CC[C@H](Nc1ncnc2[nH]cnc12)c1nc2cccc(F)c2c(=O)n1-c1ccccc1 [Idelalisib] + N=C(N)NC(=N)NCCc1ccccc1 [Phenformin] (partner 250 µM)
Procedure, shortened: as §1

Idelalisib + Foretinib = compound: CC[C@H](Nc1ncnc2[nH]cnc12)c1nc2cccc(F)c2c(=O)n1-c1ccccc1 [Idelalisib] + COc1cc2c(Oc3ccc(NC(=O)C4(C(=O)Nc5ccc(F)cc5)CC4)cc3F)ccnc2cc1OCCCN1CCOCC1 [Foretinib] (partner 0.25 µM)
Procedure, shortened: as §1

| Cell Line | relative viability (Pemetrexed + Alpelisib; first compound 0.002 µM) | relative viability (Pemetrexed + Alpelisib; first compound 0.006325 µM) | relative viability (Pemetrexed + Alpelisib; first compound 0.02 µM) | relative viability (Pemetrexed + Alpelisib; first compound 0.06325 µM) | relative viability (Pemetrexed + Alpelisib; first compound 0.2 µM) | relative viability (Pemetrexed + Phenformin; first compound 0.002 µM) | relative viability (Pemetrexed + Phenformin; first compound 0.006325 µM) | relative viability (Pemetrexed + Phenformin; first compound 0.02 µM) | relative viability (Pemetrexed + Phenformin; first compound 0.06325 µM) | relative viability (Pemetrexed + Phenformin; first compound 0.2 µM) | relative viability (Idelalisib + Phenformin; first compound 0.04 µM) | relative viability (Idelalisib + Phenformin; first compound 0.1265 µM) | relative viability (Idelalisib + Phenformin; first compound 0.4 µM) | relative viability (Idelalisib + Phenformin; first compound 1.265 µM) | relative viability (Idelalisib + Phenformin; first compound 4 µM) | relative viability (Idelalisib + Foretinib; first compound 0.04 µM) | relative viability (Idelalisib + Foretinib; first compound 0.1265 µM) | relative viability (Idelalisib + Foretinib; first compound 0.4 µM) | relative viability (Idelalisib + Foretinib; first compound 1.265 µM) | relative viability (Idelalisib + Foretinib; first compound 4 µM) |
| --- | --- | --- | --- | --- | --- | --- | --- | --- | --- | --- | --- | --- | --- | --- | --- | --- | --- | --- | --- | --- |
| NCI-H358 | 0.917 | 0.79 | 0.538 | 0.314 | 0.27 | 0.334 | 0.359 | 0.31 | 0.166 | 0.132 | 0.386 | 0.327 | 0.225 | 0.338 | 0.313 | 0.782 | 0.701 | 0.554 | 0.652 | 0.734 |
| SK-LU-1 | 0.874 | 1.02 | 1.04 | 0.931 | 1.02 | 0.497 | 0.497 | 0.626 | 0.547 | 0.534 | 0.601 | 0.57 | 0.433 | 0.55 | 0.468 | 0.816 | 0.765 | 0.811 | 0.693 | 0.766 |
| H3255 |  | 0.656 | 0.736 | 0.606 | 0.632 | 0.349 | 0.355 | 0.414 | 0.418 | 0.414 | 0.359 | 0.329 | 0.351 | 0.352 | 0.336 | 0.641 | 0.569 | 0.853 | 0.939 | 0.921 |
| LOU-NH91 | 0.711 | 0.757 | 0.745 | 0.632 | 0.529 | 0.691 | 0.733 | 0.739 | 0.572 | 0.404 | 0.712 | 0.725 | 0.573 | 0.492 | 0.643 | 1.03 | 0.912 | 0.888 | 0.803 | 0.864 |
| NCI-H1666 | 1.02 | 0.853 | 0.969 | 0.88 | 0.595 | 0.577 | 0.55 | 0.625 | 0.551 | 0.537 | 0.618 | 0.57 | 0.539 | 0.583 | 0.546 | 0.825 | 1.07 | 0.961 | 1.01 | 0.947 |
